According to PMC3400893 (Clinical Pharmacology and Therapeutics, 2012):

Assays:
patients with T2DM [1] = test: 28-day randomized placebo-controlled study: efficacy/pharmacodynamics; assay type: in vivo, human; details: for Decrease in FPG from baseline after correcting for changes in placebo values: after 28 days; for OGTT glucose excursions above baseline FPG lower than placebo: corrected for FPG at hour 0
[2] = 28-day study: plasma LX4211 pharmacokinetics; assay type: in vivo, human; details: for Tmax: both, human, plasma, oral
patients with T2DM [3] = test: Single-dose three-way crossover study: pharmacodynamics; assay type: in vivo, human
healthy volunteers = test: Phase I trial in healthy volunteers; assay type: in vivo, human; details: 300-mg dose, phase I trial (data not shown)
patients with T2DM [4] = test: 28-day study: safety, adverse events and clinical laboratory values
humans = details: taken orally at high doses; ref [46]; cited from earlier work
[5] = ref [47],[48]; cited from earlier work
[6] = single 300-mg dose of any of the LX4211 formulations
[7] = 150 or 300 mg once daily for 28 days

Structure (SMILES): CCOc1ccc(Cc2cc([C@@H]3O[C@H](SC)[C@@H](O)[C@H](O)[C@H]3O)ccc2Cl)cc1 [LX4211, (2S,3R,4R,5S,6R)-2-(4-chloro-3-(4-ethoxybenzyl)phenyl)-6-(methylthio)tetrahydro-2H-pyran-3,4,5-triol]
- FPG reduction from baseline (patients with T2DM [1]; 150 mg once daily, day 7, placebo 9 mg/dl increase): 30 mg/dL
- Decrease in FPG from baseline after correcting for changes in placebo values (patients with T2DM [1]; 150 mg): 39 mg/dL
- Net 24-h UGE increase relative to placebo (patients with T2DM [1]; 150 mg, day 1): 44 g/day
- OGTT glucose AUC (hour 0 to 4) lower than placebo (patients with T2DM [1]; 150 mg, day 2): 30%
- OGTT glucose AUC (hour 0 to 4) lower than placebo (patients with T2DM [1]; 150 mg, day 13): 35%
- OGTT glucose AUC (hour 0 to 4) lower than placebo (patients with T2DM [1]; 150 mg, day 27): 38%
- OGTT glucose excursions above baseline FPG lower than placebo (patients with T2DM [1]; 150 mg, day 27): 46%
- Decrease from baseline HbA1c after correcting for changes in placebo values (patients with T2DM [1]; 150 mg, day 28): 0.66
- Net 24-h UGE increase relative to placebo (patients with T2DM [1]; 150 mg, day 28): 37 g/day
- Decrease in FPG from baseline after correcting for changes in placebo values (patients with T2DM [1]; 300 mg): 55 mg/dL
- Net 24-h UGE increase relative to placebo (patients with T2DM [1]; 300 mg, day 1): 65 g/day
- OGTT glucose AUC (hour 0 to 4) lower than placebo (patients with T2DM [1]; 300 mg, day 2): 30%
- OGTT glucose AUC (hour 0 to 4) lower than placebo (patients with T2DM [1]; 300 mg, day 13): 36%
- OGTT glucose AUC (hour 0 to 4) lower than placebo (patients with T2DM [1]; 300 mg, day 27): 39%
- OGTT glucose excursions above baseline FPG lower than placebo (patients with T2DM [1]; 300 mg, day 27): 46%
- Decrease from baseline HbA1c after correcting for changes in placebo values (patients with T2DM [1]; 300 mg, day 28): 0.76
- Net 24-h UGE increase relative to placebo (patients with T2DM [1]; 300 mg, day 28): 48 g/day
- Amount of glucose excreted in the first 8 h vs the period spanning 8–24 h (patients with T2DM [1]; LX4211-treated groups): comparable
- Total GLP-1 levels after meals (patients with T2DM [1]; LX4211-treated groups, day 1 (similar on day 28), post hoc analysis): nonsignificant increase
- Mean serum triglyceride (TG) level (fell to within the normal range) (patients with T2DM [1]; both LX4211-treated groups (150 and 300 mg), by day 14): < 151 mg/dL
- Mean homeostasis model assessment of insulin resistance vs placebo (patients with T2DM [1]; both LX4211 groups, day 27): significantly lower
- Serum TG vs placebo (patients with T2DM [1]; both doses, post hoc analysis): statistically significant TG reductions
- 24-h UGE vs placebo (patients with T2DM [1]; both treatment groups, days 1, 14 and 28): significantly increased
- 2-h postprandial glucose (PPG) levels vs placebo (patients with T2DM [1]; each treatment group, days 1, 7, 21 and 28): significantly lowered
- Patients with HbA1c levels ≤7.0% (patients with T2DM [1]; patients who received LX4211 (150 or 300 mg), day 28, placebo 18%): 50%
- Time after dosing at which Cmax appeared ([2]; 150 and 300 mg, oral liquid): 0.5 to 2.0 h
- Dose proportionality of increases in Cmax and AUC ([2]; 150 vs 300 mg): slightly more than dose-proportional
- Steady state reached ([2]; based on Cmax, AUC0–tau, Cmin, possibly even by day 7): ≤ 14 days
- Tmax ([2]; Median tmax, days 14 and 28, the two dose groups): 1 to 1.5 h
- Tmax ([2]; tmax, individual values, the two dose groups): 0.48 to 2.02 h
- Time at which plasma concentrations were detected ([2]; each LX4211 dose, oral liquid): ≤ 15 min
- Glucagon values vs day −1 (patients with T2DM [3]; single 300-mg dose): not altered
- Plasma insulin between 0 and 13 h vs day −1 (patients with T2DM [3]; [6]): significantly decreased
- Total GLP-1 between 0 and 13 h vs day −1 (patients with T2DM [3]; [6]): significantly increased
- Total PYY between 0 and 13 h vs day −1 (patients with T2DM [3]; [6]): significantly increased
- UGE over the next 24 h vs pretreatment day (day −1) (patients with T2DM [3]; [6]): significantly increased
- Tolerability and glycosuric effect (healthy volunteers): well tolerated and produced a maximal glycosuric effect
- Renal toxicity (laboratory data) (patients with T2DM [4]; [7]): no evidence of renal toxicity
- Treatment-emergent urinary tract infections, genital infections, CV events, episodes of hypoglycemia (patients with T2DM [4]; [7]): no treatment-emergent urinary tract infections, genital infections, CV events, or episodes of hypoglycemia
- 24-h urine volume relative to placebo (patients with T2DM [4]; LX4211-treated groups, day 1): slight but nonsignificant increase
- Urinary calcium excretion (patients with T2DM [4]; LX4211-treated groups, days 1, 14, 28): at no time during the study was urinary calcium excretion increased
- Safety and tolerability (patients with T2DM [4]; at the doses and schedule employed (150 or 300 mg once daily, 28 days)): safe and well tolerated
- Urinary sodium and chloride excretion relative to placebo (patients with T2DM [4]; day 1, statistically significant in the 300 mg group): modest increases
- Frequency of gastrointestinal side effects relative to placebo (patients with T2DM [4]; even after challenge with 75 g of glucose during OGTTs): did not observe an increase

Structure (SMILES): O=C(CCc1ccc(O)cc1)c1c(O)cc(O)cc1O[C@@H]1O[C@H](CO)[C@@H](O)[C@H](O)[C@H]1O [Phlorizin, phlorizin]
- Nausea (humans): induces nausea
- Conversion in the small intestine [5]: rapidly converted to phloretin
